These molecules were tested against T1, full length human recombinant glucocorticoid receptor (Homo sapiens, UniProt P04150) (assay: Glucocorticoid Receptor Binding Assay (fluorescence polarization competitor assay, Fluormone GS Far Red tracer)).
T1 construct: partially purified full length human recombinant glucocorticoid receptor; purchased Panvera/Invitrogen PV4302
T1 sequence (P04150 1-777): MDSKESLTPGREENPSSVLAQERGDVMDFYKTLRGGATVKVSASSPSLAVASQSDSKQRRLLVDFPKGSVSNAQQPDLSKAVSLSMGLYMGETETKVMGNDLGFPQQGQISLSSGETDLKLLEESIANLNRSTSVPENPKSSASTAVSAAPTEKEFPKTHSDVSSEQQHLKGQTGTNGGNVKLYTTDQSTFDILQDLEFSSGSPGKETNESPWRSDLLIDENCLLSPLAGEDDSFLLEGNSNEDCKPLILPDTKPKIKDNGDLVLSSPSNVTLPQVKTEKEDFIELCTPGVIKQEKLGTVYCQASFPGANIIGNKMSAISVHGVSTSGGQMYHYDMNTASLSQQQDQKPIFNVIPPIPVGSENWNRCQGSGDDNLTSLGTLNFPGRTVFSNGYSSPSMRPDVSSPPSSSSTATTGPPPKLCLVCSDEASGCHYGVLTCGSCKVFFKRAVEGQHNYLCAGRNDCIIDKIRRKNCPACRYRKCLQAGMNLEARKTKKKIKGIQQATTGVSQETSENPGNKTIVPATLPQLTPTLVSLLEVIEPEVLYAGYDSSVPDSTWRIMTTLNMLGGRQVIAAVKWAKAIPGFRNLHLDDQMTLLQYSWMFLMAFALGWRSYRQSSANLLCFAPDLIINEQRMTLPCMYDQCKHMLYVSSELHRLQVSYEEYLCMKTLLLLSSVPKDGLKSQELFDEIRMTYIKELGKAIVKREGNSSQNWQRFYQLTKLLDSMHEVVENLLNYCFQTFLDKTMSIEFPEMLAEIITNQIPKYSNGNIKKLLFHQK
Experimental: Glucocorticoid Receptor Binding Assay
The ability of the substances to bind to the glucocorticoid receptor was determined with the help of a commercial Glucocorticoid Receptor Competitor Assay far red kit provided by Panvera/Invitrogen (PV4302). This kit is used as provided by the supplier. It contains some partially purified full length human recombinant glucocorticoid receptor, a coactivator related GR stabilizing peptide, a tight-binding fluorescent GR ligand Fluormone™ GS Far Red as labeled tracer and a screening buffer. All reagents are prepared and the assay is run according to the recommendations of the kit manufacturer.
Briefly, the GR stabilizing peptide and the human recombinant glucocorticoid receptor are both diluted with the screening buffer (pH 7.4) and are gently mixed (no vortexing) just before the assay and kept on ice until use. The fluorescent-labeled ligand is also diluted with the screening buffer just before the assay and kept on ice until use. The substances to test are pre-diluted in pure DMSO then some water is added to get an intermediate 4.2% DMSO stock solution. Ten microliter of the intermediate stock solution is gently mixed with 5 μl of diluted fluorescent-labeled ligand and 5 μl of diluted human recombinant glucocorticoid receptor in a 384-well plate (low volume, ultraclear, glass plate from Greiner ref 788896). The plate is centrifuged, sealed and incubated for 3 hours at 22° C. in the dark. The polarized fluorescence is measured with a Zeiss-HTS reader or any equivalent equipment (610-660 nm).
All compounds were tested to determine IC50 in a serial dilution experiment. The concentration at which 50% inhibition of the fluorescent GR ligand Fluormone™ GS Far Red is obtained (the IC50) is determined after fitting with a sigmoidal dose-response model of a plot of the logarithm of the concentration versus percent inhibition measured for the different concentrations. Ki's were calculated from IC50 based on Cheng-Prusoff equation (Cheng, Y, Prusoff, W H (1973) Biochem Pharmacol 22, 3099-3108): Ki=IC50/[1+D/Kd] wherein D is the concentration of the fluorescent ligand and Kd is the binding constant for the fluorescent ligand binding to the receptor under the conditions used in the competition experiment.

SMILES | Ki [nM]
CCOC(=O)c1cc(Oc2ccc([C@H](C)[C@](O)(c3cc(C)c(=O)n(C)c3)C(F)(F)F)c(Cl)c2)ccc1Cl (relative stereo) [Example 210, 2-Chloro-5-{3-chloro-4-[2-(1,5-dimethyl-6-oxo-1,6-dihydro-pyridin-3-yl)-3,3,3-trifluoro-2-hydroxy-1-methyl-propyl]-phenoxy}-benzoic acid ethyl ester] | 2
C[C@@H](c1ccc(OCc2ccc(C3(C(=O)O)CC3)cc2)cc1Cl)[C@](O)(c1cnc2ccccc2c1)C(F)(F)F (stereo in doubt) [Example 143, 1-{4-[3-Chloro-4-(3,3,3-trifluoro-2-hydroxy-1-methyl-2-quinolin-3-yl-propyl)-phenoxymethyl]-phenyl}-cyclopropanecarboxylic acid] | 4.6
CCOC(=O)c1cc(-c2ccc([C@H](C)[C@](O)(c3ccc(=O)n(C)c3)C(F)(F)F)c(Cl)c2)ccc1F (stereo in doubt) [Example 172, 3′-Chloro-4-fluoro-4′-[3,3,3-trifluoro-2-hydroxy-1-methyl-2-(1-methyl-6-oxo-1,6-dihydro-pyridin-3-yl)-propyl]-biphenyl-3-carboxylic acid ethyl ester] | 3.8
C[C@@H](c1cc(Oc2ccc(F)c(C(=O)O)c2)ccc1Cl)[C@](O)(c1ccc(=O)n(C)c1)C(F)(F)F (stereo in doubt) [Example 194, 5-{4-Chloro-3-[3,3,3-trifluoro-2-hydroxy-1-methyl-2-(1-methyl-6-oxo-1,6-dihydro-pyridin-3-yl)-propyl]-phenoxy}-2-fluoro-benzoic acid] | 32.3
CC(c1ccc(Oc2ccc(Cl)c(C(=O)O)c2)cc1Cl)C(O)(c1ccnc(Cl)c1)C(F)(F)F (stereo not drawn) [Example 90, 2-Chloro-5-{3-chloro-4-[2-(2-chloro-pyridin-4-yl)-3,3,3-trifluoro-2-hydroxy-1-methyl-propyl]-phenoxy}-benzoic acid] | 4.5
COc1cc(C(=O)O)ccc1COc1ccc(C(C)C(O)(c2cnn3ccccc23)C(F)(F)F)c(Cl)c1 (stereo not drawn) [Example 129, 4-[3-Chloro-4-(3,3,3-trifluoro-2-hydroxy-1-methyl-2-pyrazolo[1,5-a]pyridin-3-yl-propyl)-phenoxymethyl]-3-methoxy-benzoic acid] | 267
C[C@H](c1ccc(COc2ccc(C(=O)O)cn2)cc1Cl)[C@@](O)(c1ccnc(Cl)c1)C(F)(F)F (relative stereo) [Example 127, 6-{3-Chloro-4-[2-(2-chloro-pyridin-4-yl)-3,3,3-trifluoro-2-hydroxy-1-methyl-propyl]-benzyloxy}-nicotinic acid] | 5.5
Cc1cc([C@@](O)([C@@H](C)c2ccc(Oc3ccc(C(=O)O)cc3Cl)cc2Cl)C(F)(F)F)cn(C)c1=O (racemic) [Example 215, 3-Chloro-4-{3-chloro-4-[2-(1,5-dimethyl-6-oxo-1,6-dihydro-pyridin-3-yl)-3,3,3-trifluoro-2-hydroxy-1-methyl-propyl]-phenoxy}-benzoic acid] | 0.2
CC(c1ccc(Oc2ccc(C(=O)O)cc2F)cc1Cl)C(O)(c1ccnc(Cl)c1)C(F)(F)F (stereo not drawn) [Example 88, 4-{3-Chloro-4-[2-(2-chloro-pyridin-4-yl)-3,3,3-trifluoro-2-hydroxy-1-methyl-propyl]-phenoxy}-3-fluoro-benzoic acid] | 1.2
Cc1cc([C@](O)([C@H](C)c2ccc(Oc3ncc(C(=O)O)cc3Cl)cc2Cl)C(F)(F)F)sc1C#N (stereo in doubt) [Example 234, 5-Chloro-6-{3-chloro-4-[2-(5-cyano-4-methyl-thiophen-2-yl)-3,3,3-trifluoro-2-hydroxy-1-methyl-propyl]-phenoxy}-nicotinic acid] | 1.3
COc1cc(C(=O)O)ccc1COc1ccc(C(C)C(O)(c2ccnc(C)c2)C(F)(F)F)c(Cl)c1 (stereo not drawn) [Example 96, 4-{3-Chloro-4-[3,3,3-trifluoro-2-hydroxy-1-methyl-2-(2-methyl-pyridin-4-yl)-propyl]-phenoxymethyl}-3-methoxy-benzoic acid] | 6.1
Cc1cnc([C@](O)([C@H](C)c2ccc(OCc3ccc(C(=O)O)cc3Cl)cc2Cl)C(F)(F)F)cn1 (stereo in doubt) [Example 14, 3-Chloro-4-{3-chloro-4-[3,3,3-trifluoro-2-hydroxy-1-methyl-2-(5-methyl-pyrazin-2-yl)-propyl]-phenoxymethyl}-benzoic acid] | 2.8
CC(c1ccc(Oc2ccc(C(=O)O)c(F)c2)cc1Cl)C(O)(c1ccnc(Cl)c1)C(F)(F)F (stereo not drawn) [Example 83, 4-{3-Chloro-4-[2-(2-chloro-pyridin-4-yl)-3,3,3-trifluoro-2-hydroxy-1-methyl-propyl]-phenoxy}-2-fluoro-benzoic acid] | 5.6
CCOC(=O)c1ccc(COc2ccc([C@@H](C)[C@@](O)(c3cnc(C)cn3)C(F)(F)F)c(Cl)c2)cc1 [Example 5, 4-{3-Chloro-4-[(1R,2R)-3,3,3-trifluoro-2-hydroxy-1-methyl-2-(5-methyl-pyrazin-2-yl)-propyl]-phenoxymethyl}-benzoic acid ethyl ester] | 418

The remaining lines, values ahead:

Ki [nM] | SMILES
2 | CCOC(=O)COc1ccc(Oc2ccc([C@@H](C)[C@@](O)(c3ccc(=O)n(C)c3)C(F)(F)F)c(Cl)c2)cc1 (relative stereo) [Example 159, (4-{3-Chloro-4-[3,3,3-trifluoro-2-hydroxy-1-methyl-2-(1-methyl-6-oxo-1,6-dihydro-pyridin-3-yl)-propyl]-phenoxy}-phenoxy)-acetic acid ethyl ester]
2.4 | Cc1cc(C(O)(C(C)c2ccc(Oc3ccc(C(=O)O)cc3)cc2Cl)C(F)(F)F)ccn1 (stereo not drawn) [Example 58, 4-{3-Chloro-4-[3,3,3-trifluoro-2-hydroxy-1-methyl-2-(2-methyl-pyridin-4-yl)-propyl]-phenoxy}-benzoic acid]
0.7 | C[C@H](c1ccc(Oc2ccc(C(=O)O)cc2Cl)cc1Cl)[C@@](O)(c1ccc(=O)n(C)c1)C(F)(F)F (relative stereo) [Example 157, 3-Chloro-4-{3-chloro-4-[3,3,3-trifluoro-2-hydroxy-1-methyl-2(1-methyl-6-oxo-1,6-dihydro-pyridin-3-yl)-propyl]-phenoxy}-benzoic acid]
6.3 | C[C@H](c1ccc(Oc2ccc(C(=O)O)c(Cl)c2)cc1Cl)[C@@](O)(c1ccc(=O)n(C)c1)C(F)(F)F (stereo in doubt) [Example 154, 2-Chloro-4-{3-chloro-4-[3,3,3-trifluoro-2-hydroxy-1-methyl-2-(1-methyl-6-oxo-1,6-dihydro-pyridin-3-yl)-propyl]-phenoxy}-benzoic acid]
2.9 | C[C@H](c1ccc(OCc2ccc(C(=O)O)cc2)cc1Cl)[C@@](O)(c1ccnc(Cl)c1)C(F)(F)F (stereo in doubt) [Example 20, 4-{3-Chloro-4-[2-(2-chloro-pyridin-4-yl)-3,3,3-trifluoro-2-hydroxy-1-methyl-propyl]-phenoxymethyl}-benzoic acid]
76.4 | C[C@@H](c1ccc(Oc2ccc(C(=O)O)cc2)cc1Cl)[C@](O)(c1ccc(=O)[nH]c1)C(F)(F)F (relative stereo) [Example 175, 4-{3-Chloro-4-[3,3,3-trifluoro-2-hydroxy-1-methyl-2-(6-oxo-1,6-dihydro-pyridin-3-yl)-propyl]-phenoxy}-benzoic acid]
1.4 | CC(c1ccc(Oc2ccc(OCC(=O)O)cc2)cc1Cl)C(O)(c1ccnc(Cl)c1)C(F)(F)F (stereo not drawn) [Example 85, (4-{3-Chloro-4-[2-(2-chloro-pyridin-4-yl)-3,3,3-trifluoro-2-hydroxy-1-methyl-propyl]-phenoxy}-phenoxy)-acetic acid]
